Measured values reported in patent publication US11352354B2, “Substituted penta-fused hexa-heterocyclic compounds, preparation method therefor, drug combination and use thereof” (Xiamen University, priority 2017, dated 2022).

How the values were obtained:
MDA-MB-231 cells = test: Vacuolation of MDA-MB-231 cells caused by inhibition of compounds on PIKfyve (microscopy); assay type: cell-based; conditions: MDA-MB-231 cells; note: key: '+' represents the degree of vacuolation; ++: more '+' indicates more obvious vacuolation; +++: more '+' indicates more obvious vacuolation; ++++: more '+' indicates more obvious vacuolation; '−' represents no vacuolation
Procedure, shortened: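 MDA-MB-231 cells in 12-well plates at 37 °C, 5% CO2 were observed by microscopy after 24 and 48 h of culture for cytoplasmic vacuolation as a readout of PIKfyve inhibition. Scoring was semi-quantitative, from − (none) to increasing +.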

JeKo-1 cells = test: Tumor cell growth inhibition by MTS method, JeKo-1; assay type: cell-based; conditions: Homo sapiens, JeKo-1, 120 h, 5 days of culture; for inhibition at 10 µM: read-out: cell growth inhibition rate of compounds at 10 μM
Procedure: III. Determination of IC50 Value of Compound for Inhibiting Tumor Cell Growth by MTS Method
1. Cell plating: cells in logarithmic growth phase were counted and inoculated in a 96-well plate (20000 cells per well).
2. Administrating agent to cell: 10 mM compound mother solution in DMSO was subjected to 3 fold-gradient dilution, to set 8 concentrations, which were then added to various wells, with three replicates for each concentration, and three blank wells (only culture medium) and three negative controls (containing 0.1% DMSO) on each plate.
3. […] The OD value at 490 nm was measured with microplate reader OD490. The cell growth inhibition rate was calculated by the following formula: Cell growth inhibition rate %=1−(ODexperimental group−ODblank group)/(ODnegative group−ODblank group)×100%
The semi-inhibitory concentration IC50 of the compound acting on cell growth was calculated using GradPad Prism 5 software according to the measured cell growth inhibition rate.
In the following table it lists the IC50 value or the inhibition rates of some compounds at 10 μM against JeKo-1 cells

Toledo cells = test: Growth inhibition of PIKfyve-mediated tumor cells by Cell Titer Glo method, Toledo; assay type: cell-based; conditions: Homo sapiens, 120 h, CellTiter-Glo, 5 days of culture, read-out: Inhibition rate % (Toledo)
Procedure: (§1) IV. Determination of Growth Inhibition Rates of Compounds Against PIKfyve-Mediated Tumor Cells by Cell Titer Glo Method
(§2) 1. Cell plating: cells in logarithmic growth phase were counted and inoculated in 384-well plate.
(§3) 3. […] RLU was measured on PHERAstar Plus.

ST486 cells = test: Growth inhibition of PIKfyve-mediated tumor cells by Cell Titer Glo method, ST486; assay type: cell-based; conditions: Homo sapiens, 120 h, CellTiter-Glo, 5 days of culture, read-out: Inhibition rate % (ST486)
Procedure: as §1, §2, §3

PIKfyve protein = PIKfyve protein (Homo sapiens (Human), UniProt Q9Y2I7); test: Dissociation equilibrium constant (Kd) of compound and PIKfyve protein, DiscoverX KINOMEscan; assay type: binding; conditions: eleven 3-fold dilutions, curve fitting
Procedure: II. Determination of Dissociation Equilibrium Constant (Kd Value) of Compound and PIKfyve Protein
The Kd value was determined by DiscoverX's KINOMEscan™ technology according to the following steps:
1. Preparation of magnetic beads: biotin-labeled small molecule ligand and avidin-coated magnetic beads were allowed to interact at room temperature for 30 minutes, and then added with excess biotin, followed by washing with a blocking solution (1% BSA, 0.05% Tween 20, 1 mM DTT) to remove unbound ligand.
2. Binding reaction: in a 384 plate, 0.02 mL system, DNA-labeled protein, small molecule ligand-bound magnetic beads, and different concentrations of compound to be tested were mixed in a reaction solution (0.17×PBS, 0.05% Tween 20, 6 mM DTT) at room temperature with shaking for 1 hr, to which was added an eluant (1×PBS, 0.05% Tween 20) for elution. Magnetic beads were resuspended by an eluant (1×PBS, 0.05% Tween 20, 0.5 μM non-biotin-labeled small molecule ligand), and shaken at room temperature for 30 min before separating out the eluant.
3. Determination of Kd value: the content of protein in the above eluate was determined by qPCR. Eleven 3-fold dilution concentrations were determined for the compound to be tested, with 3 DMSO controls for each concentration, and the Kd value was obtained by curve fitting.

Chain of PIKfyve protein (Q9Y2I7 whole entry): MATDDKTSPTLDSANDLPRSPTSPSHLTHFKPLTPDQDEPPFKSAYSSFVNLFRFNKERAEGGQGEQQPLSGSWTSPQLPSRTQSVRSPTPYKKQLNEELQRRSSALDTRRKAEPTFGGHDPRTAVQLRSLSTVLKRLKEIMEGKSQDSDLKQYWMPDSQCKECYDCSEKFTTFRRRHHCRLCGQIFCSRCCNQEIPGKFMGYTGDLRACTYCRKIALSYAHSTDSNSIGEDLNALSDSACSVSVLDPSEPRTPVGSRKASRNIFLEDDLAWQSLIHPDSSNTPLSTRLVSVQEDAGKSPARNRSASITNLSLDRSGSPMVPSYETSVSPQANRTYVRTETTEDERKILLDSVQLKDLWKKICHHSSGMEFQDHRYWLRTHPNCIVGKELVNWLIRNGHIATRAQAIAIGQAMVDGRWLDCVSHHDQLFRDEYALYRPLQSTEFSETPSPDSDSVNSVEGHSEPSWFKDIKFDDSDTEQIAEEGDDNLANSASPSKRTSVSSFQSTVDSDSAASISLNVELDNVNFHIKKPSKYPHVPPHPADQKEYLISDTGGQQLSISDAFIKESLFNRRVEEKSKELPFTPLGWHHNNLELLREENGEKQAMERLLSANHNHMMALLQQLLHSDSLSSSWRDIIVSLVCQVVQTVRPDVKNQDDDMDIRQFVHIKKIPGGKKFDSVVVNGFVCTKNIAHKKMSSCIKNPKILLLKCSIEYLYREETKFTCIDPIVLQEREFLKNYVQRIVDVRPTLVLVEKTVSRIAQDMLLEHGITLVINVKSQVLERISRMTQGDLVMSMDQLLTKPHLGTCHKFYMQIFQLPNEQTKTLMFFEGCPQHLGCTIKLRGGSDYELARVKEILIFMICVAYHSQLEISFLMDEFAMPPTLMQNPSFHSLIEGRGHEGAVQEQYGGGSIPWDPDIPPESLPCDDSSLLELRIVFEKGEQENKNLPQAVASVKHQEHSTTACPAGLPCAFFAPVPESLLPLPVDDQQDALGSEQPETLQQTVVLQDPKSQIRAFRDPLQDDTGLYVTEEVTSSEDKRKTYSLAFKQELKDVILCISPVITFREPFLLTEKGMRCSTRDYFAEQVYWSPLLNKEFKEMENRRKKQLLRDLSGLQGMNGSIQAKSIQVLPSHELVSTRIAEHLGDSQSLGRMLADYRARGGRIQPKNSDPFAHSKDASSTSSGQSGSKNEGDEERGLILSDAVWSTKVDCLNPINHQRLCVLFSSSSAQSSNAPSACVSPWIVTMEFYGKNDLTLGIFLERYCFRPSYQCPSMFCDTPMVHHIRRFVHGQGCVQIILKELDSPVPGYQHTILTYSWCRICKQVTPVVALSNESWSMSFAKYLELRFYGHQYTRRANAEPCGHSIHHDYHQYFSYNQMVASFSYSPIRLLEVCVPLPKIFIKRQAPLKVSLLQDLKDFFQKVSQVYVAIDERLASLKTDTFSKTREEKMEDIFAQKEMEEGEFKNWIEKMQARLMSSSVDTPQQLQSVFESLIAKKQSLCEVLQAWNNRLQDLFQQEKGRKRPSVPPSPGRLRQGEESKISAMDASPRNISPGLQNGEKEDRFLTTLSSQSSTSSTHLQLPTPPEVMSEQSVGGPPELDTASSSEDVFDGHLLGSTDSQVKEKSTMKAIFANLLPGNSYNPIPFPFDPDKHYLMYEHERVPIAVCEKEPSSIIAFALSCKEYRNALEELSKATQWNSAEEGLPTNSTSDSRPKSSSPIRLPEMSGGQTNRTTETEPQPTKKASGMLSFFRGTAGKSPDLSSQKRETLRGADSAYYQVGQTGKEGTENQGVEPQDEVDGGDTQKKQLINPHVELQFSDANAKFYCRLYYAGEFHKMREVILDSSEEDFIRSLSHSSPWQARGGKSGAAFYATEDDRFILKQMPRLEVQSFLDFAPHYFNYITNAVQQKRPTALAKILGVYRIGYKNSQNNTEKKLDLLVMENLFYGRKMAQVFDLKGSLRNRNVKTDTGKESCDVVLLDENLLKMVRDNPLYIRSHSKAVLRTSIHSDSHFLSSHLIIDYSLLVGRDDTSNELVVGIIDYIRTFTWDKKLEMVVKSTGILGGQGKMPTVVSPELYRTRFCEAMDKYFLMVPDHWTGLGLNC

Compound	degree of vacuolation, 1 μM, 24 h (MDA-MB-231 cells)	degree of vacuolation, 1 μM, 48 h (MDA-MB-231 cells)	degree of vacuolation, 10 μM, 24 h (MDA-MB-231 cells)	degree of vacuolation, 10 μM, 48 h (MDA-MB-231 cells)	IC50 (JeKo-1 cells)	inhibition at 3.3 µM (Toledo cells)	inhibition at 3.3 µM (ST486 cells)	Kd (PIKfyve protein)	inhibition at 10 µM (JeKo-1 cells)
Cc1ccc(C(=O)Nc2cccc(C(F)(F)F)c2)cc1Nc1nc(-c2cccnc2)c2[nH]ccc2n1 [V-c-7]	++	++	+	+	3280 nM	95.8%	91.3%		
Cc1ccc(C(=O)Nc2cc(C(F)(F)F)cc(C(F)(F)F)c2)cc1Nc1nc(-c2cccnc2)c2[nH]ccc2n1 [V-c-9]						19.3%	37.7%	0.029 µM	
Cc1ccc(NC(=O)c2cc(C(F)(F)F)cc(C(F)(F)F)c2)cc1Nc1nc(-c2cccnc2)c2[nH]ccc2n1 [V-c-21]						99.5%	23.8%	0.91 µM	
Cc1cc(NC(=O)c2cccc(C(F)(F)F)c2)ccc1Nc1nc(-c2cccnc2)c2[nH]ccc2n1 [V-c-24]						97.3%	55.8%	> 30 µM	
Cc1ccc(NC(=O)c2cccc(C(F)(F)F)c2)cc1Nc1nc(-c2ccccc2)c2[nH]ccc2n1 [V-c-41]								> 30 µM	
Cc1ccc(NC(=O)c2cccc(C(F)(F)F)c2)cc1Nc1nc(-c2ccco2)c2[nH]ccc2n1 [V-c-42]								> 30 µM	
Cc1ccc(NC(=O)c2cccc(C(F)(F)F)c2)cc1Nc1nc(-c2cccs2)c2[nH]ccc2n1 [V-c-43]								> 30 µM	
COc1ccc(C(F)(F)F)cc1NC(=O)c1ccc(C)c(Nc2nc(-c3ccccc3)c3[nH]ccc3n2)c1 [V-c-51]								> 30 µM	
COc1ccc(C(F)(F)F)cc1NC(=O)c1ccc(C)c(Nc2nc(-c3ccco3)c3[nH]ccc3n2)c1 [V-c-52]								> 30 µM	
COc1ccc(C(F)(F)F)cc1NC(=O)c1ccc(C)c(Nc2nc(-c3cccs3)c3[nH]ccc3n2)c1 [V-c-53]								> 30 µM	
Cc1ccc(C(=O)Nc2cccc(OC(F)(F)F)c2)cc1Nc1nc(-c2ccccc2)c2[nH]ccc2n1 [V-c-61]								> 30 µM	
Cc1ccc(C(=O)Nc2cccc(OC(F)(F)F)c2)cc1Nc1nc(-c2ccco2)c2[nH]ccc2n1 [V-c-62]								> 30 µM	
Cc1ccc(C(=O)Nc2cccc(OC(F)(F)F)c2)cc1Nc1nc(-c2cccs2)c2[nH]ccc2n1 [V-c-63]								> 30 µM	
Cc1ccc(NC(=O)c2cccc(C(F)(F)F)c2)cc1Nc1nc(-c2cccnc2)cn2c(C)cnc12 [VI-b-7]	−	−	+	+					16.5%
Cc1ccc(Nc2nc(-c3cccc(NC(=O)c4cccc(C(F)(F)F)c4)c3)nc3ccsc23)cn1 [VII-a-15]	+	+	+	+	2670 nM				
Cc1ccc(Nc2nc(-c3cccc(NC(=O)c4ccc(N)nc4)c3)nc3ccsc23)cn1 [VII-a-16]	+	+	+	+	824 nM				
Cc1ccc(Nc2nc(-c3cccc(NC(=O)c4ccc(N)nc4)c3)nc3ccsc23)nc1 [VII-a-17]	−	−	−	−	1150 nM				
Cc1ccnc(Nc2nc(-c3cccc(NC(=O)c4cccc(C(F)(F)F)c4)c3)nc3ccsc23)c1 [VII-a-18]	+	+	+	+	2560 nM				
Cc1ccnc(Nc2nc(-c3cccc(NC(=O)c4ccc(N)nc4)c3)nc3ccsc23)c1 [VII-a-19]	−	−	−	−	1520 nM				
O=C(Nc1cccc(Nc2cc(-c3cccnc3)nc3sccc23)c1)c1cccc(C(F)(F)F)c1 [VIII-a-1]	++	++	++	++	2710 nM				
O=C(Nc1cccc(Nc2cc(-c3ccncc3)nc3sccc23)c1)c1cccc(C(F)(F)F)c1 [VIII-a-2]	++	++	++	++	3260 nM				
Cc1ccc(NC(=O)c2cccc(C(F)(F)F)c2)cc1Nc1cc(-c2cccnc2)nc2sccc12 [VIII-a-3]	++	++	++	++	2010 nM				
Cc1ccc(NC(=O)c2cccc(C(F)(F)F)c2)cc1Nc1cc(-c2ccncc2)nc2sccc12 [VIII-a-4]	+	+	+	+					17.3%
O=C(Nc1cccc(C(F)(F)F)c1)c1cccc(Nc2cc(-c3cccnc3)nc3sccc23)c1 [VIII-a-5]	−	+	+	+	5140 nM				
O=C(Nc1cccc(C(F)(F)F)c1)c1cccc(Nc2cc(-c3ccncc3)nc3sccc23)c1 [VIII-a-6]	+	+	+	+	6320 nM				
Cc1ccc(C(=O)Nc2cccc(C(F)(F)F)c2)cc1Nc1cc(-c2cccnc2)nc2sccc12 [VIII-a-7]	++	++	+++	+++	3170 nM				
Cc1ccc(C(=O)Nc2cccc(C(F)(F)F)c2)cc1Nc1cc(-c2ccncc2)nc2sccc12 [VIII-a-8]	−	++	−	++	2000 nM				
